Assay results as given in patent US20240116921A1, “LACTAM (HETERO)[…] DERIVATIVES AS INHIBITORS OF ERBB2” (EnLiven Therapeutics, Inc., priority 2020, published 2024).

Experiments:
[1] = test system: BT-474; test: Cell viability assay (CellTiter Glo), BT-474; assay type: cell-based; conditions: Homo sapiens; BT-474 cells, 72 hours, CellTiter Glo; read-out: IC50, cell viability, BT-474
[2] = test system: A431; test: Cell viability assay (CellTiter Glo), A431; assay type: cell-based; conditions: Homo sapiens, A-431, A431 cells, 72 hours
[3] = molecular target: Ba/F3 ERBB2 A775_G776insYVMA (Homo sapiens, UniProt P04626, DUP772-775, cells depend on it); test: Cell viability assay, Ba/F3 ERBB2 A775_G776insYVMA; assay type: cell-based, mouse; conditions: Ba/F3 ERBB2 A775_G776insYVMA cells, 72 hours, CellTiter Glo; Tables B2-B4; read-out: IC50, cell viability, Ba/F3 ERBB2 A775_G776insYVMA
How it was run: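 Viability after 72 h compound treatment (37 °C, 5% CO2) was quantified by CellTiter-Glo luminescence of intracellular ATP, with sigmoidal dose-response fitting. Cells were retrovirally engineered Ba/F3 lines whose growth depends on the mutant human ERBB2 in place of IL-3, plated at 3000 per well.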

[4] = molecular target: Ba/F3 ERBB2-P780_Y781insGSP (Homo sapiens, UniProt P04626, DUP778-780, cells depend on it); test: Cell viability assay, Ba/F3 ERBB2-P780_Y781insGSP; assay type: cell-based, mouse; conditions: 72 hours, CellTiter Glo, read-out: IC50, cell viability, Ba/F3 ERBB2-P780_Y781insGSP
Protocol: (§1) Cells were treated with compounds, and cell viability was measured as a metric of kinase inhibition.
(§2) The Ba/F3 cell line is IL-3-dependent mouse cell line derived from the C3H mouse strain. Ba/F3 cell lines were engineered to express human ERBB2 or EGFR kinases, rendering the cells IL-3 independent. The lines were generated via retroviral transduction utilizing a Moloney murine leukemia virus (MMLV) promoter, and constructs are stably integrated into the cell genome. The sequences of the ERBB2 and EGFR genes used were NCBI Reference Sequences NM_004448.3 and NM_005228.3, respectively.
(§3) Similarly, Ba/F3 cell lines engineered to express EGFR, ERBB2, or ERBB2 mutants were grown, harvested, counted and seeded at 3000 cells per well in 96-well plates. A subset of wells contained media only (low control, “LC”).
(§4) Table B1 provides the growth media and number of cells seeded per well for the each cell line.
Plates were placed in a 37° C., 5% CO2 incubator for 72 hours. Plates were then removed from the incubator and equilibrated for 15 minutes at room temperature. 40 μl of CellTiter Glo reagent (Promega) was added to measure the relative level of metabolically active cells by quantifying intracellular ATP concentrations. Plates were incubated for 30 minutes at room temperature, and luminescence was measured. […] Graphical curves were fitted using a nonlinear regression model with a sigmoidal dose response.

[5] = molecular target: Ba/F3 ERBB2-L869R (Homo sapiens, UniProt P04626, L869R, cells depend on it); test: Cell viability assay, Ba/F3 ERBB2-L869R; assay type: cell-based, mouse; conditions: 72 hours, CellTiter Glo, read-out: IC50, cell viability, Ba/F3 ERBB2-L869R
Protocol: as §1, §2, §3, §4
Plates were placed in a 37° C., 5% CO2 incubator for 72 hours. Plates were then removed from the incubator and equilibrated for 15 minutes at room temperature. 40 μl of CellTiter Glo reagent (Promega) was added to measure the relative level of metabolically active cells by quantifying intracellular ATP concentrations. Plates were incubated for 30 minutes at room temperature, and luminescence was measured. Percent viability was normalized to a vehicle control only using the following formula: % viability=100×(Lumsample−LumLC)/(LumHC−Lum^LC). Graphical curves were fitted using a nonlinear regression model with a sigmoidal dose response.

[6] = molecular target: T1, phosphorylated ERBB2 (pERBB2) (Homo sapiens, UniProt P04626); test: Detection of phosphorylated ERBB2 (pERBB2) by ELISA in BT-474 cells; assay type: cell-based; conditions: four hours incubation
T1 construct: endogenous in cells; host or cells: BT-474
How it was run: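 Phospho-ERBB2 in lysates was quantified by sandwich ELISA (A450, TMB) after 4 h compound exposure at 37 °C of BT-474 cells seeded at 2.0×10^4 per well. Compounds tested at 10 µM to 0.01 nM final in four-fold steps; activity normalized to DMSO (0.1%) high and cell-free low controls.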

T1 sequence (P04626 23-1255): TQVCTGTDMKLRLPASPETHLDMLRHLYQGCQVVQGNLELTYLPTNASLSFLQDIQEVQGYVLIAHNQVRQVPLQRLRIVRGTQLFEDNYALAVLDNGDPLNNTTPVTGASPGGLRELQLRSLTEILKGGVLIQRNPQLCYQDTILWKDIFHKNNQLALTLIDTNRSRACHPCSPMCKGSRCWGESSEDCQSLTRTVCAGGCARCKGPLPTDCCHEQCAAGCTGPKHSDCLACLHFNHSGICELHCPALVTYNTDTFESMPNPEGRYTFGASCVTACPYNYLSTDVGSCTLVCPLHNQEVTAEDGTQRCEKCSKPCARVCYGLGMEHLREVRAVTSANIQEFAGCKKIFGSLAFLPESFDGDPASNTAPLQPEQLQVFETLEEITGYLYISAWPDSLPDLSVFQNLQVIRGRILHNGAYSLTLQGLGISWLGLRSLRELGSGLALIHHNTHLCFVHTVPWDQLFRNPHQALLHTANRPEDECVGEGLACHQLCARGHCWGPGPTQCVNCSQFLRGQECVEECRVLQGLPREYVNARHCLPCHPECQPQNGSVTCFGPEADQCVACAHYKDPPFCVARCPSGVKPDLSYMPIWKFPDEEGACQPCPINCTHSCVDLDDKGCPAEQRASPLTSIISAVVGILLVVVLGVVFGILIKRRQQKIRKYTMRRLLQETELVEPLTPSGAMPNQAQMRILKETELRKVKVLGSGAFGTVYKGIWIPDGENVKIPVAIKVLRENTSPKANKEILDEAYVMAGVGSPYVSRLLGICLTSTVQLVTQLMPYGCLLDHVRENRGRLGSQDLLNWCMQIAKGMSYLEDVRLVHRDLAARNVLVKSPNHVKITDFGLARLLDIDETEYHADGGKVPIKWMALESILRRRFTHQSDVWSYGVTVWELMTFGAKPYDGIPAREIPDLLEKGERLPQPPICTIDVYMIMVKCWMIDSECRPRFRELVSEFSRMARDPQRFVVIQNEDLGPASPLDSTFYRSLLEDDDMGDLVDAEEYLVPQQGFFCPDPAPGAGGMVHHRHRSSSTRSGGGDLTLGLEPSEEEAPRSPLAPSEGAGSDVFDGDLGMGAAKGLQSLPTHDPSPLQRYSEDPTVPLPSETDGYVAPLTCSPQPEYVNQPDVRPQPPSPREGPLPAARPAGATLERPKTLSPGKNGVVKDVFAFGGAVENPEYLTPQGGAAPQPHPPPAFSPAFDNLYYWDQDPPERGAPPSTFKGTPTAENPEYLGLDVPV
Chain of Ba/F3 ERBB2-P780_Y781insGSP (P04626 with tags, fused parts or gaps DUP778-780): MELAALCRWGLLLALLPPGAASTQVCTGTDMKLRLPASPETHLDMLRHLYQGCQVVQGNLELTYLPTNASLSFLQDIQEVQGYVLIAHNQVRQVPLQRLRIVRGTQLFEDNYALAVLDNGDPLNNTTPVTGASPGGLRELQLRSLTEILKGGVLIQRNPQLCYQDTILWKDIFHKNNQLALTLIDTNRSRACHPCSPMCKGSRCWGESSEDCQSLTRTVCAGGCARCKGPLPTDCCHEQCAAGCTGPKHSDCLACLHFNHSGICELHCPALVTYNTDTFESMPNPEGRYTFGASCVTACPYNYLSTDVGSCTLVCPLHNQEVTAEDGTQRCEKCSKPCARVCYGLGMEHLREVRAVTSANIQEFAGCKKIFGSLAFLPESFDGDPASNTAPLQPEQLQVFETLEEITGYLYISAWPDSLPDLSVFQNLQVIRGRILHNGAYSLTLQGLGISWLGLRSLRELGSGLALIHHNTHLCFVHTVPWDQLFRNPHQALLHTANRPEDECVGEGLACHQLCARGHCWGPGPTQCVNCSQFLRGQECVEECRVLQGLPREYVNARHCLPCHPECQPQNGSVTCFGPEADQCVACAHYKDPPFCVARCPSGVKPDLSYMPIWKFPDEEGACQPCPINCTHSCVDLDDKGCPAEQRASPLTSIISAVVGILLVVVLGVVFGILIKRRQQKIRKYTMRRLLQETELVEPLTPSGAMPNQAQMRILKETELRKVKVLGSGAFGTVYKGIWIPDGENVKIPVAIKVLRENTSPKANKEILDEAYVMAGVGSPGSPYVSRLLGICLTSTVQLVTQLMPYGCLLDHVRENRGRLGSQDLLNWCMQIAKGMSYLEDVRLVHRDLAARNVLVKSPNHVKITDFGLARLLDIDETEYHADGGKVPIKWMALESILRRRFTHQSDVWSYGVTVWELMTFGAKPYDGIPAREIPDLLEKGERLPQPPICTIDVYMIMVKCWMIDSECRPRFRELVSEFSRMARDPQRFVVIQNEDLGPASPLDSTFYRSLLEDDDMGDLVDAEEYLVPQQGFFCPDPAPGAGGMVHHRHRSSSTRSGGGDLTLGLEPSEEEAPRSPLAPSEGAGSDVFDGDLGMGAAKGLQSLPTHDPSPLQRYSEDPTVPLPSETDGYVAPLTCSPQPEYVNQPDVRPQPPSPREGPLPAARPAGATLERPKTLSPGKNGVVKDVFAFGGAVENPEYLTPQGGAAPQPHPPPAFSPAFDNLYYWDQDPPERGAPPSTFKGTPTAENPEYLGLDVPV
Chain of Ba/F3 ERBB2-L869R (P04626 whole entry L869R): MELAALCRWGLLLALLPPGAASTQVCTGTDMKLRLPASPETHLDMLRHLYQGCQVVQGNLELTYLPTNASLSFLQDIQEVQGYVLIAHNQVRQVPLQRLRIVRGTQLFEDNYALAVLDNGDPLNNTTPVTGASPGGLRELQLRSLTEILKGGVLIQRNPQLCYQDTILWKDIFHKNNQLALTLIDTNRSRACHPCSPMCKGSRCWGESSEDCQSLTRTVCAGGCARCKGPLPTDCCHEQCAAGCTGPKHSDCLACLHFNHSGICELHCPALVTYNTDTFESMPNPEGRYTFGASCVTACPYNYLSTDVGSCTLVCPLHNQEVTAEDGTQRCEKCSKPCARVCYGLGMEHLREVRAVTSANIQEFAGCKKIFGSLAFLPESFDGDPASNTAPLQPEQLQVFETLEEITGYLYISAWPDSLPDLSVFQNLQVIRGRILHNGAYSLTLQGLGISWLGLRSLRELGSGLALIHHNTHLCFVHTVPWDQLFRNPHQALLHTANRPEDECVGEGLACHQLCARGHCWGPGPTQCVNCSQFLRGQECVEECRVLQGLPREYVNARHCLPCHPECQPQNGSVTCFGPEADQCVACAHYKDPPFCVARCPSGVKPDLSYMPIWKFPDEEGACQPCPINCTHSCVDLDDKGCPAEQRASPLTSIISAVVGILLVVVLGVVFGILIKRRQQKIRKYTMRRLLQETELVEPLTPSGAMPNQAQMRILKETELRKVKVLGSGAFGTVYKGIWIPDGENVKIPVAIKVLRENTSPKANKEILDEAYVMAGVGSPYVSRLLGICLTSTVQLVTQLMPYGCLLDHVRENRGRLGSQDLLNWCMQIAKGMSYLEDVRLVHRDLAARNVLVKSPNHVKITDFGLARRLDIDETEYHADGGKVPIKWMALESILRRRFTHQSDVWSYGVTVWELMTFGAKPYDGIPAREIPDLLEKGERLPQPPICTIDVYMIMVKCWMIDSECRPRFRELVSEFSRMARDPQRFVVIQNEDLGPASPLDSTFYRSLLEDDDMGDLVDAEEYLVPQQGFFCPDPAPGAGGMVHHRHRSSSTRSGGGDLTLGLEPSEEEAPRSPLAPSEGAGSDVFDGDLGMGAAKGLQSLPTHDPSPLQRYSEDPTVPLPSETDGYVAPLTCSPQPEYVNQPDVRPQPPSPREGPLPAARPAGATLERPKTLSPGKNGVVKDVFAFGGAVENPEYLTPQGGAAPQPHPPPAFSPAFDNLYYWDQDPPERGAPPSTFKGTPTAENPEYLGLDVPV
Chain of Ba/F3 ERBB2 A775_G776insYVMA (P04626 with tags, fused parts or gaps DUP772-775): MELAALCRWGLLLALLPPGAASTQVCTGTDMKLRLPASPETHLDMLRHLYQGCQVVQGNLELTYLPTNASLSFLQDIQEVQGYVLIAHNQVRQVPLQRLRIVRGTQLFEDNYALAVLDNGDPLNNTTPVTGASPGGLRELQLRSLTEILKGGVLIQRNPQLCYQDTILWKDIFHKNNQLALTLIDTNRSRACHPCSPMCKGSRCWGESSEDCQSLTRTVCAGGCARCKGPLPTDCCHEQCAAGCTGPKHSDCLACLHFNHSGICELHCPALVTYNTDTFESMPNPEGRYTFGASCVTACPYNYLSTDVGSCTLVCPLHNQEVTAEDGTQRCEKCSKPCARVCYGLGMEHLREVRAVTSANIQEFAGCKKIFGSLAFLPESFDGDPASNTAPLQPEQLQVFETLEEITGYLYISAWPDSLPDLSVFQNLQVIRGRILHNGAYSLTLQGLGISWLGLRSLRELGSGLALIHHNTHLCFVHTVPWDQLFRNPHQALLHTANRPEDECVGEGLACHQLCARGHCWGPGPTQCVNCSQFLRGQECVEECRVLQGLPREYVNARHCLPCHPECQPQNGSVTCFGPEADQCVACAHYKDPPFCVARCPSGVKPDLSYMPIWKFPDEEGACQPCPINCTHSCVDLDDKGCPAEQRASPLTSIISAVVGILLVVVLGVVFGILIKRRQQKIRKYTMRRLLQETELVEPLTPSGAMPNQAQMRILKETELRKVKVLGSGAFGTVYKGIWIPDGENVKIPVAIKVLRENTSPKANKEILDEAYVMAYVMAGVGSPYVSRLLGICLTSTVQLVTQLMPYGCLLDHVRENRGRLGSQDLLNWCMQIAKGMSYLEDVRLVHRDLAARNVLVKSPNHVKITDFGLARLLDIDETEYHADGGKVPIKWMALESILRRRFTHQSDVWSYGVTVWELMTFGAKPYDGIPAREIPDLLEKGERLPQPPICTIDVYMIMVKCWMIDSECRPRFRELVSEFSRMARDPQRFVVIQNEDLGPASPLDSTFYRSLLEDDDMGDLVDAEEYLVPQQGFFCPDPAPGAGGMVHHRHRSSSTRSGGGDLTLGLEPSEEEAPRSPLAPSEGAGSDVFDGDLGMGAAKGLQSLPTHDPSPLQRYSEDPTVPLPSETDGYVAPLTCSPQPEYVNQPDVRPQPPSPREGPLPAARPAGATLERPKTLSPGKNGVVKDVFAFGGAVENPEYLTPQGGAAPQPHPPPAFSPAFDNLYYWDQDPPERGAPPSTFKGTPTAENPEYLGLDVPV

SMILES	IC50 [1] [nM]	IC50 [2] [nM]	GI50 [3] [nM]	GI50 [4] [nM]	GI50 [5] [nM]	IC50 [6] [nM]
C=C1CCN(c2ccc3ncnc(Nc4ccc(Oc5ccn6ncnc6c5)c(C)c4)c3c2)C1=O [Compound 1, 1-[4-[(3-methyl-4-[[1,2,4]triazolo[1,5-a]pyridin-7-yloxy]phenyl)amino]quinazolin-6-yl]-3-methylidenepyrrolidin-2-one]	7.45	5800	28	3.4	3.6	7.94
C=C1CCN(c2ccc3ncnc(Nc4ccc(Oc5ccn6ccnc6c5)c(C)c4)c3c2)C1=O [Compound 4, 1-[4-[(4-[imidazo[1,2-a]pyridin-7-yloxy]-3-methylphenyl)amino]quinazolin-6-yl]-3-methylidenepyrrolidin-2-one]	16.3	1280	16	2.6	4.8	5.17
